Reference: patent publication US9422312B2, “Azabenzimidazole derivatives” (Boehringer Ingelheim International GmbH, priority 2014, dated 2016)

Target: Activated AMPK complex 1 (containing alpha1beta1gamma1) (Homo sapiens (Human), UniProt Q13131+Q9Y478)
Test: in vitro AMPK activation assay (ADP-Glo Kinase Assay)
Type: biochemical
Conditions: 1 μM peptide substrate, 30 μM ATP, 60 min, room temperature, luminescence
Description: Activated AMPK complex 1 (containing alpha1beta1gamma1) was obtained from baculovirus expression system. The gene encoding AMPK alpha1 was cloned into the pACG2T vector (BD Biosciences) to obtain a N-terminal Glutathion S transferase (GST)-fusion protein. The genes encoding AMPK beta 1 and gamma1 were cloned into the p2Bac dual multiple cloning site vector (Invitrogen) with beta1 under the control of the p10 promoter and gamma1 under the control of the PH promoter. The transfer vectors containing AMPK were co-transfected individually with AcPNV BacMagic-3 DNA (EMD Millipore) in Sf9 cells and the recombinant baculoviruses were harvested after 5 days, followed by 3 rounds of amplification of the virus stock in Sf9 cells. AMPK (alpha1beta1gamma1) was expressed in High Five 5 cells by co-infection of recombinant alpha1 virus and recombinant beta1/gamma1 virus for 72 h at 27° C. Cells were harvested by centrifugation and lysed by 3 freeze/thaw cycles in PBS with 10% glycerol and protease inhibitor cocktail (Roche). After centrifugation AMPK a1b1g1 in the supernatant was captured by immobilized glutathione (GE Healthcare), impurities were washed away with PBS and AMPK alpha1beta1gamma1 was eluted with PBS containing 20 mM reduced gluthathione. The protein buffer was then exchanged to PBS with 10% glycerol and protein concentration was determined by UV absorbance.
The white 384-well Optiplates (cat. no. 6007299) were purchased from PerkinElmer. The V9101 ADP-Glo Kinase Assay and ultra pure ATP (V915A) was purchased from Promega. The substrate for AMPK (NH2-HMRSAMSGLHLVKRR_CONH2) was purchased from Upstate (12-355).
Compounds were tested in either serial dilutions or single dose concentrations. The serial compound dilutions were prepared in 100% DMSO automatically. The final DMSO concentration in the assay was 0.1%.
The Compound Stock Solutions were 10 mM in 100% DMSO. The compounds were solubilised at room temperature.
In the 384-well plates 1.25 ul of test compound in assay buffer was mixed with 1.25 ul of AMPK and 1.25 μl of the peptide (final concentration of 1 μM) and 1.25 μl of ATP (final concentration of 30 μM), both dissolved in assay buffer. This step was followed by an incubation time of 60 min. Then 5 μl of ADP Glo Reagent was added. This was followed by 40 min of incubation. Then 10 μl of Kinase Detection Reagent was admixed. The plates were sealed and after an incubation period of 30 min, the luminescence signal was measured in an Envision reader. All incubation steps were accomplished at room temperature.
Each assay microtiter plate contained wells with vehicle controls instead of compound (0.1% DMSO in water) as reference for the low signal (100% CTL, low signal), and wells with serial dilutions of AMP (final 30 μM) as reference for high signals.
The luminescence signal generated was proportional to the ADP concentration produced and was correlated with AMPK activity. The analysis of the data was performed by the calculation of the percentage of ATP consumption of AMPK in the presence of the test compound compared to the consumption of ATP in the presence of AMPK without compound. (RLU(sample)/RLU(low control))*100[RLU=relative luminescence units]
An activator of the AMPK enzyme gave values above 100% CTL.
EC50 values based on dose response curves are calculated with the XIFIT software using the 4 Parameter Logistic Model or Sigmoidal Dose-Response Model.

Sequence of Activated AMPK complex 1 (containing alpha1beta1gamma1) (Q13131 whole entry): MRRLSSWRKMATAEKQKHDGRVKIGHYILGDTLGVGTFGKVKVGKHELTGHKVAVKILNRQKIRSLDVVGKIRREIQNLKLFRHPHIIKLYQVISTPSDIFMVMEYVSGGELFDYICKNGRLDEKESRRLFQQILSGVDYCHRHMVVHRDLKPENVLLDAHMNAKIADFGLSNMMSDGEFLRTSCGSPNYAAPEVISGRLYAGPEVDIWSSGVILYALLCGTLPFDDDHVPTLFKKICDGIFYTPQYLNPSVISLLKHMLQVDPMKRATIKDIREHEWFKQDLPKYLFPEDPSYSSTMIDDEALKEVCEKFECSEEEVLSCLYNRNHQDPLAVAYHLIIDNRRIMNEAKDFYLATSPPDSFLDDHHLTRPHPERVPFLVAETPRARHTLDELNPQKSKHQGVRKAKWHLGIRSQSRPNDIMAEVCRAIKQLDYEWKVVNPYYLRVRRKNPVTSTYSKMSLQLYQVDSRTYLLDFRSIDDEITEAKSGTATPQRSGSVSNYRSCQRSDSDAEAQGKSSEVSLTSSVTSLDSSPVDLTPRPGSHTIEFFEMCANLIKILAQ
Sequence of Activated AMPK complex 1 (containing alpha1beta1gamma1) (Q9Y478 whole entry): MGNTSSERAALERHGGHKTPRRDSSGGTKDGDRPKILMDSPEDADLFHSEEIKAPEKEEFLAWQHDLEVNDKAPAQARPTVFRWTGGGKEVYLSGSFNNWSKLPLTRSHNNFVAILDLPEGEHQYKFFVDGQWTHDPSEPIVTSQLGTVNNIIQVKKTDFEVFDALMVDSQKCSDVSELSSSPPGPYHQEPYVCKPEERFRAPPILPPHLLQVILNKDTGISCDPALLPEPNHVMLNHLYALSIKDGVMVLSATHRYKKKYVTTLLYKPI
Sequence of Activated AMPK complex 1 (containing alpha1beta1gamma1) (P54619 whole entry partner): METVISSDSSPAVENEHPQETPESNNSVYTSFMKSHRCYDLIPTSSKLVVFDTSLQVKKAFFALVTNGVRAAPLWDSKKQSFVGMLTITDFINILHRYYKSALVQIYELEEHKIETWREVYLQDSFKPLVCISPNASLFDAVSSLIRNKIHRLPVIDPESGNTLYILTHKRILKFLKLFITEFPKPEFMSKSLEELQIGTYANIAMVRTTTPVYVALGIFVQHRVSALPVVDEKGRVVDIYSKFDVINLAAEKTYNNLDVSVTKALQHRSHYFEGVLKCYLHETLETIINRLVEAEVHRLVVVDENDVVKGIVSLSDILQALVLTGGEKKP

Row | SMILES | EC50 [nM]
1 | CN(C)S(C)(=O)=NCc1ccc(-c2ccc(-c3nc4[nH]c(O[C@@H]5CO[C@H]6[C@@H]5OC[C@H]6O)nc4cc3Cl)cc2)cc1 (stereo partly drawn) [Example 20, N′—({4-[4-(2-{[(3R,3aR,6R,6aR)-6-Hydroxy-hexahydrofuro[3,2-b]furan-3-yl]oxy}-6-chloro-3H-imidazo[4,5-b]pyridin-5-yl)phenyl]phenyl}methyl)-N,N-dimethyl-methanesulfonimidamide] | 82
2 | CN(C)S(C)(=O)=Nc1ccc(-c2nc3[nH]c(O[C@@H]4CO[C@H]5[C@@H]4OC[C@H]5O)nc3cc2Cl)cc1 (stereo partly drawn) [Example 21, N′-[4-(2-{[(3R,3aR,6R,6aR)-6-Hydroxy-hexahydrofuro[3,2-b]furan-3-yl]oxy}-6-chloro-3H-imidazo[4,5-b]pyridin-5-yl)phenyl]-N,N-dimethyl-methanesulfonimidamide] | 2900
